Experimental data from the Kinase Knowledgebase extract (Sharma et al. 2016).
pIC50: −log10 of the molar value.

Molecular target: PIK3CG (human) (UniProt P48736)
Assay: Assessment of PIK3CG Kinase Activity

Sequence of PIK3CG (human) (P48736 whole entry, looked up): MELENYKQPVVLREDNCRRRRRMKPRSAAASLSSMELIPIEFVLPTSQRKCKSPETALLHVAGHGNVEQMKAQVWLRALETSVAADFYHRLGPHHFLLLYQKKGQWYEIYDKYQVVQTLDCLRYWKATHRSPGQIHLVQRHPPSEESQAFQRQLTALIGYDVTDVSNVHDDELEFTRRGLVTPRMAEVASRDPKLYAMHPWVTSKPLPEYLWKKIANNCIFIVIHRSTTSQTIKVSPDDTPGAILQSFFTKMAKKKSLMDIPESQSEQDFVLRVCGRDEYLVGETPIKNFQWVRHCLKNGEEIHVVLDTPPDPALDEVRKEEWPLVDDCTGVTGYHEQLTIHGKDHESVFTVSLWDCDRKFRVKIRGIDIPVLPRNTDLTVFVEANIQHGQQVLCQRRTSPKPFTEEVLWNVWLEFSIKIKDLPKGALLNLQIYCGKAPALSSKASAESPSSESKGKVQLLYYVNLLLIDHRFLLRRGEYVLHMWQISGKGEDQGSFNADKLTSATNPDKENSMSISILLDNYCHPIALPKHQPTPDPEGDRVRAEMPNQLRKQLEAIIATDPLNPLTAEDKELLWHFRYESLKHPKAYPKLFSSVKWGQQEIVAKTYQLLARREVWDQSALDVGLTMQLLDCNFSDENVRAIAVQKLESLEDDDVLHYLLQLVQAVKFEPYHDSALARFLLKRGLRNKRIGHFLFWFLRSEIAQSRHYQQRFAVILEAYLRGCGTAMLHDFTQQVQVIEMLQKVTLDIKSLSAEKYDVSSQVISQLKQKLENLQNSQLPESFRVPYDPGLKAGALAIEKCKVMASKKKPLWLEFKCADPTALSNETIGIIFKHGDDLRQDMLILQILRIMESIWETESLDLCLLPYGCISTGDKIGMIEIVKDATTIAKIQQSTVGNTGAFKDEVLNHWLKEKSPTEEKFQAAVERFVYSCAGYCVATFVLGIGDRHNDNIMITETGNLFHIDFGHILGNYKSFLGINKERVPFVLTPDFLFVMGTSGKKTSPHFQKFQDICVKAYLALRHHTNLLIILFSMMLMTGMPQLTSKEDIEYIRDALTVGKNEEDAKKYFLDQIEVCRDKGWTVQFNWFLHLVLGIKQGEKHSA

CCOC(=O)CCCNC(=O)Nc1nc2c(s1)-c1c(c(-c3ccccc3)nn1-c1ccccc1Cl)CC2
pIC50: > 6.10

O=C(O)CC1(CNC(=O)Nc2nc3c(s2)-c2c(c(-c4cccnc4)nn2-c2ccccc2Cl)CC3)CCCCC1
pIC50: > 6.10

O=C(NCc1ccc2c(c1)OCO2)Nc1nc2c(s1)-c1c(c(-c3cncnc3)nn1-c1ccccc1Cl)CC2
pIC50: > 6.10

O=C1CCC(CNC(=O)Nc2nc3c(s2)-c2c(c(-c4cccnc4)nn2-c2ccccc2Cl)CC3)N1 (stereo unspecified)
pIC50: > 6.10

O=C(NCCc1nc(C2CC2)no1)Nc1nc2c(s1)-c1c(c(C3CC3)nn1-c1ccccc1Cl)CC2
pIC50: > 6.10

CC(C)(C)OC(=O)N1CCCCC1CNC(=O)Nc1nc2c(s1)-c1c(c(-c3cncnc3)nn1-c1ccccc1Cl)CC2 (stereo unspecified)
pIC50: > 6.10

CN(C)C(=O)CCNC(=O)Nc1nc2c(s1)-c1c(c(C3CC3)nn1-c1ccccc1Cl)CC2
pIC50: > 6.10

O=C(NCCn1ccnc1)Nc1nc2c(s1)-c1c(c(-c3cncnc3)nn1-c1ccccc1F)CC2
pIC50: > 6.10

CC(C)NC(=O)Nc1nc2c(s1)-c1c(c(-c3cccnc3)nn1-c1ccccc1Cl)CC2
pIC50: > 6.10

COC(=O)N1CC[C@H](CNC(=O)Nc2nc3c(s2)-c2c(c(-c4cncnc4)nn2-c2ccccc2Cl)CC3)C1
pIC50: > 6.10

O=C(NC[C@@H]1CCCN1)Nc1nc2c(s1)-c1c(c(-c3cncnc3)nn1-c1ccccc1F)CC2
pIC50: > 6.10

CN[C@@H](C)C(=O)N1CC[C@H](CNC(=O)Nc2nc3c(s2)-c2c(c(-c4cncnc4)nn2-c2ccccc2Cl)CC3)C1
pIC50: > 6.10

CCc1cnc(CCNC(=O)Nc2nc3c(s2)-c2c(c(-c4cncnc4)nn2-c2ccccc2Cl)CC3)o1
pIC50: > 6.10

NC(=O)Nc1nc2c(s1)-c1c(c(-c3cncnc3)nn1-c1ccccc1F)CC2
pIC50: > 6.10

CCN(CC)C(=O)N1CCC[C@@H]1CNC(=O)Nc1nc2c(s1)-c1c(c(-c3cncnc3)nn1-c1ccccc1Cl)CC2
pIC50: > 6.10

O=C(Nc1ccccc1)Nc1nc2c(s1)-c1c(c(-c3cncnc3)nn1-c1ccccc1Cl)CC2
pIC50: > 6.10

O=C(NCc1cccc(N2CCNC2=O)c1)Nc1nc2c(s1)-c1c(c(C3CC3)nn1-c1ccccc1Cl)CC2
pIC50: > 6.10

C[C@H](NC(=O)Nc1nc2c(s1)-c1c(c(-c3ccccc3)nn1-c1ccccc1Cl)CC2)C(=O)N1CCCCC1
pIC50: > 6.10

CC(C)(C)OC(=O)CCNC(=O)Nc1nc2c(s1)-c1c(c(-c3cccnc3)nn1C1CCN(C3CCCC3)CC1)CC2
pIC50: > 6.10

CC(C)COC(=O)N1CCC[C@@H]1CNC(=O)Nc1nc2c(s1)-c1c(c(-c3cncnc3)nn1-c1ccccc1Cl)CC2
pIC50: > 6.10

CC(C)c1cccc(CNC(=O)Nc2nc3c(s2)-c2c(c(-c4cccnc4)nn2C2CCN(C)CC2)CC3)c1
pIC50: > 6.10

CCc1nnc(CCNC(=O)Nc2nc3c(s2)-c2c(c(C4CC4)nn2-c2ccccc2Cl)CC3)o1
pIC50: > 6.10

O=C(NCCc1ccncc1)Nc1nc2c(s1)-c1c(c(-c3cccnc3)nn1-c1ccccc1Cl)CC2
pIC50: > 6.10

CN(C)CCNC(=O)Nc1nc2c(s1)-c1c(c(-c3cncnc3)nn1-c1ccccc1F)CC2
pIC50: > 6.10

CC(C)c1nnc(CCNC(=O)Nc2nc3c(s2)-c2c(c(-c4ccccc4)nn2-c2cccc(Cl)c2)CC3)o1
pIC50: > 6.10

O=C(NCCn1ccnc1)Nc1nc2c(s1)-c1c(c(-c3cncnc3)nn1-c1ccccc1Cl)CC2
pIC50: > 6.10

Cc1nn(C)cc1CNC(=O)Nc1nc2c(s1)-c1c(c(-c3cccnc3)nn1-c1ccccc1Cl)CC2
pIC50: > 6.10

CCc1noc(CCNC(=O)Nc2nc3c(s2)-c2c(c(C4CC4)nn2-c2ccccc2Cl)CC3)n1
pIC50: > 6.10

NC(=O)Nc1cccc(CNC(=O)Nc2nc3c(s2)-c2c(c(-c4cccnc4)nn2-c2ccccc2Cl)CC3)c1
pIC50: > 6.10

O=C(NCc1cc(CN2CCOCC2)ccn1)Nc1nc2c(s1)-c1c(c(-c3cncnc3)nn1-c1ccccc1Cl)CC2
pIC50: > 6.10

CC(C)(C)OC(=O)NCC1CCCN1C(=O)Nc1nc2c(s1)-c1c(c(-c3cccnc3)nn1-c1ccccc1Cl)CC2 (stereo unspecified)
pIC50: > 6.10

CN1CCC(n2nc(-c3cccnc3)c3c2-c2sc(NC(=O)NCc4cccc(NC(N)=O)c4)nc2CC3)CC1
pIC50: > 6.10

CC(C)(C)OC(=O)N1CCN(c2cccc(NC(=O)Nc3nc4c(s3)-c3c(c(-c5cncnc5)nn3-c3ccccc3F)CC4)c2)CC1
pIC50: > 6.10

CCN1CCC(n2nc(-c3cccnc3)c3c2-c2sc(NC(=O)NCc4cccc(N5CCNC5=O)c4)nc2CC3)CC1
pIC50: > 6.10

O=C1CCC(NC(=O)Nc2nc3c(s2)-c2c(c(-c4cccnc4)nn2-c2ccccc2Cl)CC3)C(c2ccccc2)N1 (stereo unspecified)
pIC50: > 6.10

CCc1noc(CCNC(=O)Nc2nc3c(s2)-c2c(c(-c4cncnc4)nn2-c2ccccc2Cl)CC3)n1
pIC50: > 6.10

O=C(Nc1nc2c(s1)-c1c(c(-c3cccnc3)nn1-c1ccccc1Cl)CC2)N1CCC(CN2CCc3ccccc3C2=O)C1 (stereo unspecified)
pIC50: > 6.10

CC(C)(C)OC(=O)N1CCC[C@H]1CNC(=O)Nc1nc2c(s1)-c1c(c(-c3cncnc3)nn1-c1ccccc1F)CC2
pIC50: > 6.10

CN(C)CCNC(=O)Nc1nc2c(s1)-c1c(c(-c3cccnc3)nn1-c1ccccc1Cl)CC2
pIC50: > 6.10

C[C@@H](NC(=O)Nc1nc2c(s1)-c1c(c(-c3ccccc3)nn1-c1ccccc1Cl)CC2)C(=O)N1CCOCC1
pIC50: > 6.10

O=C(NCC1CCCCN1)Nc1nc2c(s1)-c1c(c(-c3cncnc3)nn1-c1ccccc1Cl)CC2 (stereo unspecified)
pIC50: > 6.10

O=C(NCCCN1CCNC1=O)Nc1nc2c(s1)-c1c(c(-c3cccnc3)nn1-c1ccccc1Cl)CC2
pIC50: > 6.10

CC(C)(C)OC(=O)N1CC[C@@H](CNC(=O)Nc2nc3c(s2)-c2c(c(-c4cncnc4)nn2-c2ccccc2Cl)CC3)C1
pIC50: > 6.10

CN1CCN(C(=O)Nc2nc3c(s2)-c2c(cnn2-c2ccccc2)CC3)CC1
pIC50: > 6.10

O=C(Nc1nc2c(s1)-c1c(c(-c3cncnc3)nn1-c1ccccc1Cl)CC2)NC1CCCNC1 (stereo unspecified)
pIC50: > 6.10

CCOC(=O)N1CC[C@H](CNC(=O)Nc2nc3c(s2)-c2c(c(-c4cncnc4)nn2-c2ccccc2Cl)CC3)C1
pIC50: > 6.10

O=C(NCCc1nc(C2CC2)no1)Nc1nc2c(s1)-c1c(c(Nc3ccccn3)nn1-c1ccccc1)CC2
pIC50: > 6.10

O=C(NCCc1ccccn1)Nc1nc2c(s1)-c1c(c(-c3cccnc3)nn1-c1ccccc1Cl)CC2
pIC50: > 6.10

CN(C)C(=O)CNC(=O)Nc1nc2c(s1)-c1c(c(C3CC3)nn1-c1ccccc1Cl)CC2
pIC50: > 6.10

CC(=O)NCC1CCCN(C(=O)Nc2nc3c(s2)-c2c(c(-c4cccnc4)nn2-c2ccccc2Cl)CC3)C1 (stereo unspecified)
pIC50: > 6.10

Cn1cc(CNC(=O)Nc2nc3c(s2)-c2c(c(-c4cccnc4)nn2-c2ccccc2Cl)CC3)cn1
pIC50: > 6.10

CC(C)c1cnc(CCNC(=O)Nc2nc3c(s2)-c2c(c(-c4ccccc4)nn2-c2cccc(Cl)c2)CC3)o1
pIC50: > 6.10

O=C(NCCc1cccc(N2CCNC2=O)c1)Nc1nc2c(s1)-c1c(c(-c3cccnc3)nn1-c1ccccc1Cl)CC2
pIC50: > 6.10

CCN1CCC2(CCN(C(=O)Nc3nc4c(s3)-c3c(c(-c5cccnc5)nn3-c3ccccc3Cl)CC4)C2)C1 (stereo unspecified)
pIC50: > 6.10

CC(=O)Nc1ccc(S(=O)(=O)NCCNC(=O)Nc2nc3c(s2)-c2c(c(-c4ccccc4)nn2-c2ccccc2Cl)CC3)cc1
pIC50: > 6.10

CCn1cnc(CCNC(=O)Nc2nc3c(s2)-c2c(c(-c4cccnc4)nn2C2CCN(C)CC2)CC3)c1
pIC50: > 6.10

COc1cccc(CCNC(=O)Nc2nc3c(s2)-c2c(c(-c4cncnc4)nn2-c2ccccc2Cl)CC3)c1OC
pIC50: > 6.10

CN(Cc1cccc(CNC(=O)Nc2nc3c(s2)-c2c(c(-c4cccnc4)nn2-c2ccccc2Cl)CC3)c1)C(=O)OC(C)(C)C
pIC50: > 6.10

CC(C)(C)OC(=O)N1CCC[C@@H]1CNC(=O)Nc1nc2c(s1)-c1c(c(-c3ccccc3)nn1-c1ccccc1F)CC2
pIC50: > 6.10

CC(C)c1noc(CCNC(=O)Nc2nc3c(s2)-c2c(c(-c4ccccc4)nn2-c2cccc(Cl)c2)CC3)n1
pIC50: > 6.10

CCn1cnc(CCNC(=O)Nc2nc3c(s2)-c2c(c(-c4ccccc4)nn2-c2ccccc2Cl)CC3)c1
pIC50: > 6.10

CN1CCC(n2nc(-c3cccnc3)c3c2-c2sc(NC(=O)NCc4cccc(N(C)C)c4)nc2CC3)CC1
pIC50: > 6.10

CC(=O)N(C)c1cccc(CNC(=O)Nc2nc3c(s2)-c2c(c(-c4cncnc4)nn2-c2ccccc2Cl)CC3)c1
pIC50: > 6.10

O=C(NCC1CCCN(c2ncccn2)C1)Nc1nc2c(s1)-c1c(c(-c3cccnc3)nn1-c1ccccc1Cl)CC2 (stereo unspecified)
pIC50: > 6.10

C[C@@H](NC(=O)Nc1nc2c(s1)-c1c(c(-c3ccccc3)nn1-c1ccccc1Cl)CC2)C(=O)N1CCCCC1
pIC50: > 6.10

O=C(NCc1ccc2cc[nH]c2c1)Nc1nc2c(s1)-c1c(c(-c3cccnc3)nn1-c1ccccc1Cl)CC2
pIC50: > 6.10

NC(=O)c1ccc(CNC(=O)Nc2nc3c(s2)-c2c(c(-c4cncnc4)nn2-c2ccccc2Cl)CC3)cc1
pIC50: > 6.10

O=C(Nc1cccc(N2CCNCC2)c1)Nc1nc2c(s1)-c1c(c(-c3cncnc3)nn1-c1ccccc1F)CC2
pIC50: > 6.10

CNC(=O)c1cccc(CNC(=O)Nc2nc3c(s2)-c2c(c(-c4cccnc4)nn2C2CCN(C)CC2)CC3)c1
pIC50: > 6.10

CC(C)(C)OC(=O)Nc1cccc(CNC(=O)Nc2nc3c(s2)-c2c(c(-c4cncnc4)nn2-c2ccccc2Cl)CC3)c1
pIC50: > 6.10

O=C(NCCNS(=O)(=O)C1CC1)Nc1nc2c(s1)-c1c(c(-c3ccccc3)nn1-c1ccccc1Cl)CC2
pIC50: > 6.10

COc1cccc(CNC(=O)Nc2nc3c(s2)-c2c(c(-c4cncnc4)nn2-c2ccccc2Cl)CC3)c1
pIC50: > 6.10

CN(C)C(=O)CNC(=O)Nc1nc2c(s1)-c1c(c(-c3cccnc3)nn1C1CCN(C3CCCC3)CC1)CC2
pIC50: > 6.10

O=C(NCc1cc(C2CC2)n[nH]1)Nc1nc2c(s1)-c1c(c(-c3cncnc3)nn1-c1ccccc1Cl)CC2
pIC50: > 6.10

CC(C)(C)OCCNC(=O)Nc1nc2c(s1)-c1c(c(-c3ccccc3)nn1-c1ccccc1Cl)CC2
pIC50: > 6.10

CCn1cnc(CCNC(=O)Nc2nc3c(s2)-c2c(c(C4CC4)nn2-c2ccccc2Cl)CC3)c1
pIC50: > 6.10

CNC(=O)c1cccc(CNC(=O)Nc2nc3c(s2)-c2c(c(-c4cccnc4)nn2C2CCN(C4CCCC4)CC2)CC3)c1
pIC50: > 6.10

CCOCCNC(=O)Nc1nc2c(s1)-c1c(c(-c3ccccc3)nn1-c1ccccc1Cl)CC2
pIC50: > 6.10

Cn1cc(CNC(=O)Nc2nc3c(s2)-c2c(c(-c4cccnc4)nn2C2CCN(C4CCCC4)CC2)CC3)cn1
pIC50: > 6.10

CNC(=O)Nc1nc2c(s1)-c1c(c(-c3cccnc3)nn1-c1ccc(S(N)(=O)=O)cc1Cl)CC2
pIC50: > 6.10

CCc1csc(CCNC(=O)Nc2nc3c(s2)-c2c(c(C4CC4)nn2-c2ccccc2Cl)CC3)n1
pIC50: > 6.10
